The text below walks through data of patent US20170216360A1, “METHODS AND COMPOSITIONS FOR IMPROVING HOMING OF CELLS INCLUDING MESENCHYMAL STEM CELLS” (SANOFI, priority 2014, published 2017).

Common to all, as to assay type: cell-based, human
One assay concerns MSC secretome. As to the kind of experiment: Secretomic analysis of small molecule-primed MSCs (Bio-plex immunoassays).
The next assay relates to CD18 mRNA. Description: CD18 mRNA analysis by qPCR in MSCs. The note with it: 3 μM. The method, then: The mRNA levels of CD11a and CD18 in response to Ro-31-8425 pretreatment of MSCs were analyzed by qPCR. Specifically, MSCs were treated with Ro-31-8425 (3 μM) or vehicle control (0.1% DMSO) for 2 h, 4 h, 8 h, 14 h or 24 h. Cells were then trypsinized, washed with ice-cold PBS and pelleted (500 g for 5 min at 4° C.) at during the treatment and immediately stored at −80° C. RNA extraction was then performed. Briefly, the frozen cell pellet was crushed with a tissue pestle (Fisher Scientific) in the presence of 1 mL TRI RNA isolation reagent (Sigma Aldrich). Upon complete pellet dissociation, 0.2 mL chloroform was added and suspension was vortexed for 15 s, followed by incubation at ambient temperature for 10 min. The mixture was centrifuged at 15,000 g for 15 min at […], the resulting supernatant aqueous phase was removed, thoroughly mixed with 0.5 mL isopropanol (Sigma Aldrich) and further centrifuged (at 15,000 g for 10 min) to obtain the total RNA precipitates. The RNA pellets were washed twice in 75% ethanol, and air dried for 10 min at room temperature before being reconstituted with 20 uL ultrapure H2O. The quality and quantity of the total RNAs were measured and verified using Nanodrop ND-2000 Spectrophotometer (NanoDrop Products). Subsequently, equal amount of total RNA (2 μg) was reverse transcribed into cDNA using a QuantiTect reverse transcription kit (Qiagen). […]

For assay [1], the system named is CD11a surface expression on huMSCs. As to the kind of experiment: Medium throughput screen: CD11a surface expression on MSCs, PE-CY5 anti-CD11a antibody, laser-scanning fluorescence microplate cytometer.

Counter-ions that a name gives are not always drawn.

As to `Cn1cc(C2=C(c3c4n(c5ccccc35)CCC(CN)C4)C(=O)NC2=O)c2ccccc21` (centres unmarked) [Compound 1929, 3-(8-aminomethyl-6,7,8,9-tetrahydro-pyrido[1,2-a]indol-10-yl)-4-(1-methyl-1H-indol-3-yl)-pyrrole-2,5-dione hydrochloride], in the assay with MSC secretome, the “Number of analytes with statistically significant changes, out of 48 secreted factors” value came out at 3. Further, in the assay on MSC secretome (0.3 μM, 24 h, MSC donor 318006), the “Mean of [IFN-g]” value worked out at 11.0 pg/mL, the “Mean of [IL-1ra]” value came to 16.5 pg/mL, the “Mean of [IL-6]” value stood at 451.3 pg/mL and the “Mean of [IL-8]” value turned out to be 26.9 pg/mL. For the same compound, in the assay on MSC secretome (0.3 μM, 24 h, MSC donor 318006), the “Mean of [IL-12p70]” value turned out to be 13.3 pg/mL, the “Mean of [LIF]” value stood at 14.2 pg/mL, the “Mean of [MCP-1]” value was found to be 26.4 pg/mL and the “Mean of [MIF]” value was found to be 54.9 pg/mL. For the same compound, the “Mean of [VEGF]” value in the assay with MSC secretome (0.3 μM, 24 h, MSC donor 318006) amounted to 547.2 pg/mL. Further, in the assay with MSC secretome (3 μM, 24 h, MSC donor 318006), the “Mean of [IL-1ra]” value worked out at 22.6 pg/mL, the “Mean of [LIF]” value was determined as 10.8 pg/mL and the “Mean of [MIF]” value was 69.4 pg/mL. In the assay on MSC secretome (3 micromolar for 24 hours), the “IL-8 level secreted by MSC” value was “downregulation”, the “MCP-1 level secreted by MSC” value is “downregulation” and the “SDF-1alpha level secreted by MSC” value is “upregulation”. For the same compound, in the assay on MSC secretome (MSC secretome), the “Fold change of analyte IL-6 upon pretreatment (vs. vehicle control)” value is recorded as 0.34 +/− 0.09 and the “Fold change of analyte MCP-1 upon pretreatment (vs. vehicle control)” value was 0.54 +/− 0.09. For the same compound, in the assay on CD18 mRNA, the “mRNA levels of CD18 in MSCs” value is on record as “did not upregulate”. The “Effect on the expression of other homing ligands” value in assay [1] is “no observed effect”.
